Reference: BindingDB's records for patent US10624871 (The University of Hong Kong, 2020)

Columns and labels:
[1] = molecular target: T1, Metallo-beta-lactamase type 2 [29-270] (Klebsiella pneumoniae, UniProt C7C422); test: Enzyme Inhibition Assay
T1 construct: 29-270
Description: (§1) Freshly prepared Zn2-NDM-1 (50 nM) or Zn2-VIM-2 were first incubated with various concentrations of Bi(III) compounds for 1 h at 25° C. The assay was performed in a 1 cm quartz cuvette using the kinetic mode of Varian Cary 50 UV-visible spectrophotometer at 25° C. The final assay buffer contains 50 mM HEPES/Na pH 7.0, 100 mM NaCl and 100 μM MER. The decrease in absorbance at 300 nm due to ring-opening of MER was monitored every second for a duration of 10 mins until the reaction was completed. The initial rate were extracted and calculated from each reaction curves.

[2] = molecular target: T2, Metallo-beta-lactamase VIM-2 [21-266] (Klebsiella pneumoniae, UniProt Q3Y6Q3); test: Enzyme Inhibition Assay
T2 construct: 21-266
Description: as §1

T1 sequence (C7C422 29-270): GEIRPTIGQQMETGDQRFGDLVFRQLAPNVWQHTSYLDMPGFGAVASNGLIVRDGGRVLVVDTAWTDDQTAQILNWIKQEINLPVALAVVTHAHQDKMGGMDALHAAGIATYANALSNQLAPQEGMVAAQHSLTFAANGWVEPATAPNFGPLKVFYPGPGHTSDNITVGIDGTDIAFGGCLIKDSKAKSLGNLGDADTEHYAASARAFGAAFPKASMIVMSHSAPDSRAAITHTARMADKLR

| SMILES | IC50 [1] [µM] | IC50 [2] [µM] |
| --- | --- | --- |
| [Bi+3] [US10624871, Compound Bi(NO3)3] | 1.89 | 2.45 |
| O=C(O)C[C@@](O)(CC(O)O)C(=O)O [US10624871, Compound 10] | 5.83 | 44.5 |
| CC(=O)N[C@@H](CS)C(=O)O [US10624871, Compound 21] | 17.7 |  |
| C[C@H](CS)C(=O)N1CCC[C@H]1C(=O)O [US10624871, Compound 15] |  | 6.17 |
